# From patent US8546381B2, “Bridged heterocyclic compounds and methods of use” (Medivation Technologies, Inc., priority 2008, dated 2013)
# Columns and labels:
# [1] = target: T1, human recombinant adrenergic α2C receptor (Homo sapiens, UniProt P18825); assay: Adrenergic α2C radioligand binding ([3H]MK-912); conditions: for inhibition at 1 µM: read-out: Adrenergic α2C, inhibition of ligand binding (1 μM)
# T1 construct: expressed in transfected cells; host or cells: insect Sf9 cells
# T1 sequence (P18825 1-462): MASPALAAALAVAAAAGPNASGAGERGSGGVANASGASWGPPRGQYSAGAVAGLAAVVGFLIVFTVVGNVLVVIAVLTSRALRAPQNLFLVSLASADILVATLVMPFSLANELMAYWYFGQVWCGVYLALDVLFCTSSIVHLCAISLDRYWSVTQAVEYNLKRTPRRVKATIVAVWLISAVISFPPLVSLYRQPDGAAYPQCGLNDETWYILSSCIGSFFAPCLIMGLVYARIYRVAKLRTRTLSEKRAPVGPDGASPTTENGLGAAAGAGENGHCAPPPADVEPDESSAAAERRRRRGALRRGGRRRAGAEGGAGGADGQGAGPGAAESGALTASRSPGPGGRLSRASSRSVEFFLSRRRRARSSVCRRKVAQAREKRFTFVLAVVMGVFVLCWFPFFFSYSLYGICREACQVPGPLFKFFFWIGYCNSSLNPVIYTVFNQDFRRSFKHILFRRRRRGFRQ
# Method: To evaluate in radioligand binding assays the activity of compounds of the invention, human recombinant adrenergic α2C receptor expressed in insect Sf9 cells (Uhlen S et al. J Pharmacol Exp Ther. 271:1558, 1994) in a modified Tris-HCl buffer (50 mM Tris-HCl, pH 7.4, 12.5 mM MgCl2, 2 mM EDTA) was used. Compounds of the invention were incubated with 1 nM [^3H]MK-912 for 60 minutes at 25° C. Non-specific binding was estimated in the presence of 10 μM WB-4101. Receptor proteins were filtered and washed, the filters were then counted to determine [^3H]MK-912 specifically bound. Compounds were screened at 1 μM or lower, using 1% DMSO as vehicle. Compounds of the invention were tested in this biochemical assay and percent inhibition of specific binding was determined.
# [2] = target: T2, rat adrenergic α1B receptor (Rattus norvegicus, UniProt P15823); assay: Adrenergic α1B radioligand binding ([3H]Prozosin); conditions: for inhibition at 1 µM: read-out: Adrenergic α1B, inhibition of ligand binding (1 μM)
# T2 construct: obtained from Wistar Rat liver; from tissue; host or cells: Wistar rat liver
# T2 sequence (P15823 1-515): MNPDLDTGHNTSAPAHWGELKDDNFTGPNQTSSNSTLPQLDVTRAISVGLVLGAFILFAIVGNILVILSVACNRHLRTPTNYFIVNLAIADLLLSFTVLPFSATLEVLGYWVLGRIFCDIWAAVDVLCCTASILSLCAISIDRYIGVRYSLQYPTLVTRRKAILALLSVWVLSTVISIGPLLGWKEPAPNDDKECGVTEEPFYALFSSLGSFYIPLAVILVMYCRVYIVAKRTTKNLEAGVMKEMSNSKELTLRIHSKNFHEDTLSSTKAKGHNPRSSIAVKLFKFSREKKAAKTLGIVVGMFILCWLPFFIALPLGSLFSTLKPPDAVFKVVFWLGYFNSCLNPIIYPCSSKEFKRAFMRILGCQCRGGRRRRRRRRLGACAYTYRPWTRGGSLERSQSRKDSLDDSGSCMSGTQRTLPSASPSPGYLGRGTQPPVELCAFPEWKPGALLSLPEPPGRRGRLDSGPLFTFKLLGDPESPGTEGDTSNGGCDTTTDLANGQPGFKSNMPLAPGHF
# Method: To evaluate in radioligand binding assays the activity of compounds of the invention, rat adrenergic α1B receptor obtained from Wistar Rat liver (Garcia-S'ainz, J. A. et al., Biochem. Biophys. Res. Commun. 186:760, 1992; Michel A. D. et al., Br. J. Pharmacol. 98:883, 1989) in a modified Tris-HCl buffer (50 mM Tris-HCl buffer, pH 7.4, 0.5 mM EDTA) was used. Compounds of the invention were incubated with 0.25 nM [^3H]Prozosin for 60 minutes at 25° C. Non-specific binding was estimated in the presence of 10 μM phentolamine. Receptor proteins were filtered and washed, the filters were then counted to determine [^3H]Prozosin specifically bound. Compounds were screened at 1 μM or lower, using 1% DMSO as vehicle. Compounds of the invention were tested in this biochemical assay and percent inhibition of specific binding was determined.
# [3] = target: T3, human recombinant serotonin (5-Hydroxytryptamine) 5-HT2B receptor (Homo sapiens, UniProt P41595); assay: Serotonin 5-HT2B radioligand binding ([3H]LSD); conditions: for inhibition at 1 µM: read-out: Serotonin 5-HT2B, inhibition of ligand binding (1 μM)
# T3 construct: expressed in transfected cells; host or cells: CHO-K1 cells
# T3 sequence (P41595 whole entry): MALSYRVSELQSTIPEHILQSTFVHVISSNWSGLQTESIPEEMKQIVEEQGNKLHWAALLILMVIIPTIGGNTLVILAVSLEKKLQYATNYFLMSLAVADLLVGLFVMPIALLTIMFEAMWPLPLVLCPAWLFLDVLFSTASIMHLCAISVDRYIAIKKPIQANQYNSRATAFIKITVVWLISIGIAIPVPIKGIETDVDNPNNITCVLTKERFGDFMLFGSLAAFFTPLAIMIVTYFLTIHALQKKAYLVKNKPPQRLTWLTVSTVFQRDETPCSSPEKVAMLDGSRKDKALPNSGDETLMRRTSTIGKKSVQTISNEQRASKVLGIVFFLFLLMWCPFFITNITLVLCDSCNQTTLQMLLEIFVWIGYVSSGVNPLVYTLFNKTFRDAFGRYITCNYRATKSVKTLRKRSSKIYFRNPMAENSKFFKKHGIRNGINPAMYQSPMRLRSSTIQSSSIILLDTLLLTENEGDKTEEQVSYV
# Method: To evaluate in radioligand binding assays the activity of compounds of the invention, human recombinant serotonin (5-Hydroxytryptamine) 5-HT2B receptor expressed in Chinese hamster ovary (CHO-K1) cells (Bonhaus, D. W. et al., Br. J. Pharmacol. 115:622, 1995) in a modified Tris-HCl buffer (50 mM Tris-HCl, pH 7.4, 4 mM CaCl2, 0.1% Ascorbic Acid) was used. Compounds of invention were incubated with 1.2 nM [^3H]Lysergic acid diethylamide (LSD) for 60 minutes at 37° C. Non-specific binding was estimated in the presence of 10 μM Serotonin (5-HT). Receptor proteins were filtered and washed, the filters were then counted to determine [^3H]LSD specifically bound. Compounds were screened at 1 μM or lower, using 1% DMSO as vehicle. Compounds of the invention were tested in this biochemical assay and percent inhibition of specific binding was determined. Biochemical assay results are presented as the percent inhibition of specific binding in Table 4.
Compound,"inhibition at 0.03 µM ([1]; read-out: Adrenergic α2C, inhibition of ligand binding (0.03 μM)) [%]","inhibition at 0.3 µM ([1]; read-out: Adrenergic α2C, inhibition of ligand binding (0.3 μM)) [%]",inhibition at 1 µM [1] [%],"inhibition at 0.03 µM ([2]; read-out: Adrenergic α1B, inhibition of ligand binding (0.03 μM)) [%]","inhibition at 0.3 µM ([2]; read-out: Adrenergic α1B, inhibition of ligand binding (0.3 μM)) [%]",inhibition at 1 µM [2] [%],"inhibition at 0.03 µM ([3]; read-out: Serotonin 5-HT2B, inhibition of ligand binding (0.03 μM)) [%]","inhibition at 0.3 µM ([3]; read-out: Serotonin 5-HT2B, inhibition of ligand binding (0.3 μM)) [%]",inhibition at 1 µM [3] [%]
Cc1ccc2c(c1)c1c(n2CCc2ccccc2)CC2CCC1N2C (stereo not drawn) [Compound 2],14,69,97,63,89,99,37,88,71
Cc1ccc2c(c1)c1c(n2CCc2ccccc2)CC2CCCC1N2C (stereo not drawn) [Compound 56],,,55,,,80,,,-11
CN1C2CCC1c1c(n(CCc3ccc(F)cc3)c3ccc(Cl)cc13)C2 (stereo not drawn) [Compound 57],,,83,,,87,,,48
CN1C2CCC1c1c(n(CCc3ccc(Cl)cc3)c3ccc(Cl)cc13)C2 (stereo not drawn) [Compound 58],,,89,,,83,,,32
